Reference: ChEMBL document CHEMBL1201862, “PubChem BioAssay data set” (2004)
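48-hour exposure; five concentrations; linearly interpolated endpoints. Abbreviation: GI50, concentration required for 50% inhibition of growth.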 The source made the active and inactive calls. Cut-off read from the data, not from the text of the source: active = GI50 up to about 1.1 µM and inactive = higher.

Columns and labels:
Assay in all cases: inhibition of tumour cell growth, NCI panel, 48 h
ACHN = system: ACHN
UO-31 = system: UO-31
NCI-H226 = system: NCI-H226
HT-29 = system: HT-29
U-251 = system: U-251
HOP-62 = system: HOP-62
M14 = system: M14
TK-10 = system: TK-10
HCT-116 = system: HCT-116
SK-MEL-28 = system: SK-MEL-28
SK-MEL-2 = system: SK-MEL-2
NCI-H522 = system: NCI-H522
SK-MEL-5 = system: SK-MEL-5
OVCAR-5 = system: OVCAR-5
HL-60 = system: HL-60
SN12C = system: SN12C
MCF7 = system: MCF7
PC-3 = system: PC-3
DU-145 = system: DU-145

Measured: GI50

CN1C(=O)n2c(nc3ccccc32)C(N=[N+]=[N-])(N=[N+]=[N-])C1=O (stereo not drawn)
inactive: ACHN > 100 µM | UO-31 > 100 µM | NCI-H226 > 100 µM | HT-29 > 100 µM | U-251 > 100 µM | HOP-62 > 100 µM | M14 > 100 µM | TK-10 > 100 µM | HCT-116 > 100 µM | SK-MEL-28 > 100 µM | SK-MEL-2 > 100 µM | NCI-H522 > 100 µM | SK-MEL-5 > 100 µM | OVCAR-5 > 100 µM | HL-60 > 100 µM

CCC1(c2ccc(OC)c(OC)c2)CCN(S(=O)(=O)c2ccc(C)cc2)C1 (stereo not drawn)
inactive: ACHN > 100 µM | SN12C > 100 µM | MCF7 > 100 µM | UO-31 > 100 µM | NCI-H226 > 100 µM | HT-29 > 100 µM | U-251 > 100 µM | HOP-62 > 100 µM | M14 > 100 µM | PC-3 > 100 µM | TK-10 > 100 µM | HCT-116 57.4 µM | SK-MEL-28 > 10 µM | SK-MEL-2 > 100 µM | NCI-H522 68.5 µM | SK-MEL-5 33.7 µM | DU-145 > 100 µM | OVCAR-5 > 100 µM

COc1c2nc(CCl)[nH]c(=O)c2c(OC)c2nc(CCl)[nH]c(=O)c12
inactive: ACHN > 100 µM | SN12C > 100 µM | UO-31 > 100 µM | NCI-H226 > 100 µM | HT-29 > 100 µM | U-251 > 100 µM | HOP-62 > 100 µM | M14 > 100 µM | TK-10 > 100 µM | HCT-116 > 100 µM | SK-MEL-28 > 100 µM | SK-MEL-2 > 100 µM | NCI-H522 > 100 µM | SK-MEL-5 > 100 µM | OVCAR-5 > 100 µM | HL-60 > 100 µM

O=C1c2ccoc2C(=O)c2oc(=O)ccc21
inactive: ACHN 2.86 µM | SN12C 11.1 µM | UO-31 7.43 µM | NCI-H226 > 42.6 µM | HT-29 36.4 µM | U-251 8.15 µM | HOP-62 > 46.1 µM | M14 7.82 µM | TK-10 > 45.1 µM | HCT-116 5.31 µM | SK-MEL-28 5.43 µM | SK-MEL-2 6.59 µM | NCI-H522 1.86 µM | SK-MEL-5 1.7 µM | OVCAR-5 19.7 µM | HL-60 2.32 µM

CNC(=O)CN(CC(=O)NC)C(=O)NC
inactive: ACHN > 100 µM | UO-31 > 100 µM | NCI-H226 > 100 µM | HT-29 > 100 µM | U-251 > 100 µM | HOP-62 > 100 µM | M14 > 100 µM | TK-10 > 100 µM | SK-MEL-28 > 100 µM | SK-MEL-2 > 100 µM | NCI-H522 > 100 µM | SK-MEL-5 > 100 µM | OVCAR-5 > 100 µM | HL-60 > 100 µM

CCC(=O)C1=C(OC(C)=O)C2Cc3c(n(C)c4ccccc34)C(C1)N2C (stereo not drawn)
inactive: ACHN 27.3 µM | SN12C 25.3 µM | UO-31 36.1 µM | NCI-H226 > 100 µM | HT-29 30.8 µM | U-251 > 100 µM | M14 37.8 µM | TK-10 66.1 µM | HCT-116 29.9 µM | SK-MEL-28 71.8 µM | SK-MEL-2 63.7 µM | NCI-H522 15.3 µM | SK-MEL-5 28.2 µM | OVCAR-5 > 100 µM | HL-60 21.6 µM

COC(=O)N1CCc2c(nc(N(C)CCO)[nH]c2=O)C1
inactive: ACHN > 100 µM | SN12C > 100 µM | UO-31 > 100 µM | NCI-H226 > 100 µM | HT-29 > 100 µM | U-251 > 100 µM | HOP-62 > 100 µM | M14 > 100 µM | TK-10 > 100 µM | HCT-116 > 100 µM | SK-MEL-28 > 100 µM | SK-MEL-2 > 100 µM | NCI-H522 > 100 µM | SK-MEL-5 > 100 µM | OVCAR-5 > 100 µM | HL-60 > 100 µM

COC(=O)C1=C(C(=O)OC)SC(=CC#CC=C2SC(C(=O)OC)=C(C(=O)OC)S2)S1
inactive: ACHN 11.8 µM | SN12C 13.5 µM | UO-31 3.51 µM | NCI-H226 10.6 µM | HT-29 24.9 µM | U-251 16.1 µM | HOP-62 3.96 µM | M14 13.6 µM | TK-10 9.06 µM | HCT-116 11.7 µM | SK-MEL-28 18.4 µM | SK-MEL-2 12.9 µM | NCI-H522 24.4 µM | SK-MEL-5 27 µM | OVCAR-5 > 90.6 µM | HL-60 > 100 µM

COP(=O)(OC)OCN(C)CC/C=C(\C)CC/C=C(\C)CCC=C(C)C
inactive: ACHN 22.8 µM | SN12C 15.6 µM | MCF7 15.2 µM | UO-31 14.1 µM | NCI-H226 15.4 µM | U-251 17.7 µM | HOP-62 16.1 µM | M14 14.5 µM | PC-3 7.57 µM | TK-10 10.3 µM | HCT-116 11.8 µM | SK-MEL-28 17.3 µM | SK-MEL-2 14.9 µM | NCI-H522 13.4 µM | SK-MEL-5 11.8 µM | OVCAR-5 15.5 µM

N#CCc1nc(O)c2ccccc2n1
inactive: ACHN > 100 µM | SN12C > 100 µM | MCF7 28.1 µM | UO-31 > 100 µM | NCI-H226 > 100 µM | HT-29 > 100 µM | U-251 > 100 µM | HOP-62 > 100 µM | M14 > 100 µM | PC-3 > 100 µM | TK-10 > 100 µM | HCT-116 > 100 µM | SK-MEL-28 > 100 µM | SK-MEL-2 > 100 µM | SK-MEL-5 > 100 µM | DU-145 > 100 µM | OVCAR-5 > 100 µM | HL-60 28.3 µM

CC(C)C(=O)NS(=O)(=O)c1ccccc1
inactive: ACHN > 100 µM | SN12C > 100 µM | UO-31 > 100 µM | NCI-H226 > 100 µM | HT-29 > 100 µM | U-251 > 100 µM | HOP-62 > 100 µM | M14 > 100 µM | TK-10 > 100 µM | HCT-116 > 100 µM | SK-MEL-28 > 100 µM | SK-MEL-2 > 100 µM | NCI-H522 > 100 µM | OVCAR-5 > 100 µM | HL-60 > 100 µM

CC1CCP(=O)(c2ccccc2)c2ccccc21 (stereo not drawn)
inactive: ACHN 42.5 µM | SN12C 26.2 µM | UO-31 > 100 µM | NCI-H226 > 100 µM | HT-29 > 100 µM | U-251 24.1 µM | HOP-62 78.7 µM | M14 > 100 µM | TK-10 > 100 µM | HCT-116 23 µM | SK-MEL-28 > 100 µM | SK-MEL-2 > 100 µM | NCI-H522 43.6 µM | SK-MEL-5 49.5 µM | OVCAR-5 > 100 µM | HL-60 19.6 µM

CC1(C)c2ccccc2N2O[C@@H]3C(=O)N(c4ccccc4)C(=O)[C@@H]3C21c1ccccc1 (stereo partly drawn)
inactive: SN12C > 100 µM | UO-31 > 100 µM | NCI-H226 > 100 µM | HT-29 > 100 µM | HOP-62 > 100 µM | M14 > 100 µM | TK-10 > 100 µM | SK-MEL-28 > 100 µM | SK-MEL-2 > 100 µM | NCI-H522 41.1 µM | SK-MEL-5 > 100 µM | HL-60 30.8 µM
